Measurements: patent publication US20070128719A1, “ISOLATION AND EXPANSION OF ANIMAL CELLS IN CELL CULTURES” (TissueTech, Inc., priority 2003, published 2007)

Columns and labels:
human limbal explants = experiment: Epithelial outgrowth from human limbal explants cultured on intact AM with kinase inhibitors; assay type: cell-based; details: for epithelial outgrowth: limbal explant on intact AM in SHEM, vs DMSO control
Procedure: Human AM was provided by Bio-Tissue (Miami, Fla.) and stored at −80° C. before use. AM was devitalized by freezing and thawing and washed three times with HBSS before being fastened onto a 30 mm culture insert, Millicel-CM (which generated an insert with 23 mm diameter covered by AM), and placed in a 6 well plate (Meller, D. and Tseng S C G, Invest Ophthalmol Vis Sci., 40:878-86, 1999).
After removal of excessive sclera, iris, corneal endothelium, conjunctiva, and Tenon's capsule, the limbal ring was separated by a 7.5 mm trephine from donor human corneas. Each limbal ring was rinsed 3 times with SHEM media. The limbal ring was then exposed for 10 min to 1.2 units/ml Dispase II in Mg^2+- and Ca^2+-free HBSS at 37° C. under 95% humidity and 5% CO2. Following three rinses with SHEM medium, each limbal ring was subdivided into two halves and each half further subdivided into 6 pieces of 1×1.5×2.5 mm explants. To eliminate variations of age, sex, and race, explants from the corresponding position of the same donor cornea were selected for the control and the experimental group, respectively. An explant was placed on the center of intact AM or plastic with the epithelial side facing up and cultured in SHEM medium. The experimental group was added with the inhibitor of desired concentration, while the control group was added with the same concentration of DMSO as the vehicle which was used to dissolve each inhibitor. The culture was maintained at 37° C. under 95% humidity and 5% CO2, the medium was changed every other day, and their outgrowth was monitored daily for 17 days using an inverted phase microscope (Nikon, Japan). The outgrowth area was digitized every other day by Adobe Photoshop 5.5 and analyzed by NIH ImageJ 1.30v (NIH, Bethesda, Md.).
All experiments were performed at least in triplicate. Summary data were reported as means±S.D., compiled and analyzed by MicroSoft Excel™ (MicroSoft, Redmont, Wash.). The mean and standard deviation were calculated for each group using the appropriate version of Student's unpaired t-test. Test results were reported as two-tailed p values, where p<0.05 was considered statistically significant.

p44/42 MAPK [1] = experiment: Western blot of p44/42 MAPK phosphorylation in limbal epithelial cells expanded on intact AM; assay type: cell-based, human
FKHRL1 = experiment: Western blot of FKHRL1 phosphorylation in limbal epithelial cells expanded on intact AM; assay type: cell-based, human
Akt = experiment: Western blot of Akt phosphorylation in limbal epithelial cells expanded on intact AM; assay type: cell-based, human
p44/42 MAPK [2] = details: 10 μM; cited from earlier work
[3] = system: Smad-mediated TGF-β signaling; experiment: Immunolocalization of Smad 2 and Smad 4 in murine keratocytes; assay type: cell-based, mouse; details: 10 ng/ml, cells on plastic in DMEM/ITS (16% without TGF-β1)
Procedure: Isolation and Culture of Keratocytes on Plastic or AM—Albino mice eyes were enucleated by forceps, washed profusely in PBS, and incubated in DMEM containing 20 mM HEPES, 15 mg/ml dispase II (Roche, Indianapolis, Ind.) and 100 mM sorbitol at 4° C. for 18 h (see Espana et al., Invest Ophthalmol Vis Sci. 44:4275-4281, 2003; Kawakita et al., Invest Ophthalmol Vis Sci. 45:3507-3512, 2004). The entire corneal epithelium loosened by this treatment was subsequently removed by vigorous shaking. Under a dissecting microscope, the corneal stroma was separated from the sclera at the corneoscleral limbus by pressing down the limbus with a 27 G needle while the eye was held with a forcep. Isolated corneal stromas were incubated overnight at 37° C. in DMEM containing 1.25 mg/ml collagenase A (Roche, Indianapolis, Ind.), 50 μg/ml gentamicin and 20 mM HEPES in a non-coated plastic dish until the tissue became “smeared” onto the dish bottom. Digested corneal stromas in collagenase A were centrifuged at 800×g for 5 min. Keratocytes were resuspended in DMEM containing 20 mM HEPES, ITS (5 μg/ml insulin, 5 μg/ml transferrin and 5 ng/ml sodium selenite), 50 μg/ml gentamicin and 1.25 μg/ml amphotericin B with or without 10% FBS. […]

[4] = system: murine limbal epithelial cells; experiment: Clonal expansion of single cell expanded murine limbal epithelial cells in KSFM; assay type: cell-based, mouse; details: 10 pg/ml and 150 pg/ml; 50 cells/cm^2 in KSFM, 6 days
Procedure: Single cell expanded murine limbal epithelial cells were seeded at 50 cells/cm^2 in KSFM and cultured for 6 days. […] Cells seeded at 20,000 cells/cm^2 in KSFM became enlarged.

[5] = system: murine limbal epithelial progenitor cells; experiment: α-SMA expression in clonal cultures of murine limbal epithelial progenitor cells; assay type: cell-based, mouse; details: 5 ng/ml in KSFM; low seeding density (500 cells/cm^2)
Procedure: In clonal cultures of murine limbal epithelial progenitor cells, expression of α-SMA, a marker for myofibroblasts, was not detected when clonally expanded murine limbal epithelial cells were seeded at low density (500 cells/cm^2), but increasingly detected when cells were seeded at the intermediate (5,000 cells/cm^2) and high seeding densities (50,000 cells/cm^2). Cells expressing α-SMA were larger and squamous and could also express p63 in the nucleus. […] Under these conditions, expression of S100A shifted from cytoplasm to the nucleus, signaling of Smad 4 moved from cytoplasm to the nucleus, expression of […] moved from the intercellular junction to the cytoplasm and the perinucleus, the signaling of β-catenin moved from the intercellular junctions to the nucleus), and the signaling of LEF-1 also moved from the cytoplasm to the nucleus.

Smad2 = experiment: Nuclear accumulation of Smad2 in rhesus monkey keratocytes; assay type: cell-based; details: 4 ng/ml added in KSFM for 48 hours (19.3±5.1% in KSFM alone)
From the text: Three rhesus monkeys (Macaca Mulatta), 4 years old, and rabbit and mouse cornea were obtained from an approved tissue-sharing program after euthanasia. An entire anterior corneoscleral segment was removed from the globe by cutting near the limbus with Wescott's scissors. A central cornea was obtained with an 8.0 mm Barron's trephine and immediately transferred to KSFM medium (cat# 17005-042, GIBCO Invitrogen corporation, Carlsbad, Calif.). After removing Descemet's membrane and the corneal endothelium, the corneal epithelium was removed by dispase digestion for 16 h at 4° C. and the remaining corneal stroma was incubated at 37° C. for 16 h in 2.5 ml of DMEM containing 1 mg/ml collagenase A, 20 mM HEPES, 50 μg/ml gentamicin and 1.25 μg/ml amphotericin in a plastic dish. Afterwards, corneal stromal cells were resuspended in 1 ml of KSFM, centrifuged to remove residual matrices, resuspended in KSFM, and seeded on plastic dishes in KSFM or DMEM containing insulin, transferrin, and selenium supplement (DMEM/ITSG) (cat# 41400-045, GIBCO, Carlsbad, Calif.) or 10% FBS (DMEM/10% FBS).
When the primary culture on plastic reached 80% confluence, cells were rendered into single cells by incubation in BSS containing 0.25% trypsin/1 mM EDTA at 37° C. for 1 to 5 minutes, and the enzymatic reaction was stopped by adding soybean-trypsin inhibitor. […]

murine keratocytes = experiment: α-SMA expression (myofibroblast differentiation) of murine keratocytes; assay type: cell-based, mouse; details: cells on plastic; 5 days of continuous stimulation with TGF-β1
Procedure: TGF-β1 Challenge and Neutralizing Antibody—To assess whether TGF-β1 affected the cell phenotype, triggered Smad 2 and Smad 4 nuclear translocation, and differentiated keratocytes into myofibroblasts, 10 ng/ml human recombinant TGF-β1 (Sigma, St Louis, Mo.) was added to serum-free DMEM/ITS cells for 3 h or 5 days when cells expanded on AM were passed to 24 well plastic dishes and AM inserts, respectively. In addition, primary keratocytes were seeded and cultured on AM or plastic for 3 days in DMEM/ITS or DMEM/10% FBS for 24 h, of which the latter was treated with or without 10 μg of a monoclonal antibody neutralizing TGF-β1, -β2, and -β3 (R&D Systems, Minneapolis, Minn.) per ml of DMEM medium for 48 h before adenoviral transfection.
To confirm that TGF-β was indeed responsible for Smad signaling in DMEM/10% FBS, a neutralizing antibody to three TGF-β isoforms was added to the plastic cultures. Nuclear translocation of Smad 4 was prevented. […] Thirty-nine percent of cells cultured on plastic differentiated into α-SMA-expressing myofibroblasts, but no cell on AM expressed α-SMA even after 5 days of continuous stimulation with TGF-β1.

TGF-β1 promoter = experiment: TGF-β promoter assay in human limbal epithelial cells; assay type: cell-based
Procedure: Human corneal fibroblasts were transiently transfected with the aforementioned adenoviral promoter constructs. […] 2, 2005 and entitled “Suppression Of TGF-B Activity By Amniotic Membrane Extracts, Compositions Thereof, And Methods For The Prevention And Suppression Of Scarring And Inflammation” in a dose-dependent manner (from 0.04 to 125 μg/ml) in human corneal fibroblasts. […] The suppressive effect of both AME and HA alone was lost after pretreatment with HAse. […] A similar result was obtained for TGF-βRII promoter activity.

[6] = after 17 days of treatment at 50 μM
[7] = after 17 days of treatment at 10 μM

O=c1cc(N2CCOCC2)oc2c(-c3ccccc3)cccc12 [LY294002]
epithelial outgrowth (human limbal explants; 5 μM, up to 17 days): not significantly inhibited
epithelial outgrowth (human limbal explants; 10 μM, up to 17 days): not significantly inhibited
time to re-initiation of outgrowth after switch to fresh medium (human limbal explants; [6]): 2 days
time to reach ~80% confluence after removal of inhibitor (human limbal explants; [6]): 30 days

CCOC(=O)c1ccc2[nH]c3c(OC)c4[nH]c5ccc(C(=O)OCC)cc5c4cc3c2c1 [SR13668]
p44/42 MAPK phosphorylation (p44/42 MAPK [1]; 50 μM): did not change
reduction of the outgrowth rate (human limbal explants; 10 μM, from day 5 to day 11): 50%
reduction of the outgrowth rate (human limbal explants; 10 μM, from day 11 on): 60%
epithelial outgrowth (human limbal explants; 50 μM): completely inhibited
time to re-initiation of outgrowth after switch to fresh medium (human limbal explants; [6]): 2 days
time to reach ~80% confluence after removal of inhibitor (human limbal explants; [6]): 30 days
Thr32 phosphorylation of FKHRL1 (FKHRL1; 50 μM): abolished
phosphorylation of Akt at Thr308 and Ser473 (Akt; 50 μM): abolished

N#CC(=C(/N)Sc1ccccc1N)/C(C#N)=C(\N)Sc1ccccc1N [U0126]
phosphorylation of p44/42 MAPK (Thr202 and Tyr204) (p44/42 MAPK [1]; 10 μM): abolished
day at which epithelial outgrowth was noted / started (human limbal explants; 10 μM): 8 days
average outgrowth area at day 17 (human limbal explants; 10 μM, day 17): 17.0±3.0 mm^2
epithelial outgrowth (human limbal explants; 10 μM, up to 17 days): almost halted
time to re-initiation of outgrowth after switch to fresh medium (human limbal explants; [7]): 2 days
time to reach ~80% confluence after removal of inhibitor (human limbal explants; [7]): 25 days
phosphorylation of FKHRL1 at Thr32 (FKHRL1; 10 μM): decreased
phosphorylation of Akt at Ser473 (Akt; 10 μM): decreased
phosphorylation of Akt at Thr308 (Akt; 10 μM): eliminated
p44/42 MAPK phosphorylation in many cells (p44/42 MAPK [2]): completely inhibited

TGF-β1: human recombinant TGF-β1 (Sigma)
cells with nuclear localization of Smad 4 ([3]; 3 h): 67%
cells with nuclear localization of Smad 4 ([3]; 5 days): 85%
clonal expansion [4]: dose-dependently suppressed
α-SMA expression [5]: upregulated
percentage of nuclear accumulation of Smad2 (Smad2): 34.7±4.9%
cells differentiated into α-SMA-expressing myofibroblasts (murine keratocytes): Thirty-nine

hyaluronic acid [HA]
suppressive effect on TGF-β1 promoter activity after pretreatment with HAse (TGF-β1 promoter): lost
